Experimental data from patent US20230052517A1, “ELECTROCHEMICAL SENSING METHODS AND APPARATUS FOR DETERMINING DRUG UPTAKE AND RETENTION IN CELLS” (priority 2020, published 2023).
Where two headings read alike, the source gives them in different places. One block for each molecule: values may come before it.

Experiments:
[1] = test system: Pseudomonas aeruginosa PAO1 (wild type strain, containing efflux pumps); assay: Tobramycin uptake by DPV of the supernatant, PAO1 strain; format: cell-based; conditions: for Percentage of Tobramycin in Supernatant, PAO1: 2 mM Tobramycin, 1X PBS, 0.4% glucose, 37° C., DPV on GCE at pH 3
Method: (§1) (i.e. 15 minutes; 30 minutes and 60 minutes). […] Integration underneath the curves provides the charge.
(§2) The uptake of another antibiotic, Tobramycin (2 mM) was analyzed in Pseudomonas aeruginosa using DPV. […] As summarized in TABLE 3, the concentration of the control remains stable over different times of incubation at 37° C. […] At 15 min, the hyper-susceptible PAO750 removes about 26% of Tobramycin, which is slightly more than the wild type. […] A concentration of 2 mM Tobramycin appears to have been too high for the cells to withstand. […] As both of these strains are not resistant to Tobramycin, cell lysis at prolonged incubation times was expected.

[2] = test system: Pseudomonas aeruginosa PAO750 (hyper-susceptible strain, efflux pumps deleted); format: cell-based; conditions: for Percentage of Tobramycin in Supernatant, PAO750: 2 mM Tobramycin, 1X PBS, 0.4% glucose, 37° C., DPV on GCE at pH 3
Method: as §1, §2

[3] = Control drug solution without bacterial cells incubated at 37° C., DPV; conditions: for Percentage of Tobramycin in Supernatant, Control: 2 mM Tobramycin in 1X PBS, 0.4% glucose without bacterial cells
Method: DPV measurements of 1 mM Cip were taken and after incubation, centrifugation was performed at 4000 rpm for 10 min and the supernatant was collected.
Similarly uptake of Tobramycin (2 mM), was analyzed in Pseudomonas aeruginosa also using DPV. The control solutions were tested before and after incubation at 37° C. and with different incubation times at 37° C. (i.e. 15 minutes; 30 minutes and 60 minutes). […] Integration underneath the curves provides the charge. This charge is proportional to the number of molecules transferred during DPV recordings (see FIGS. 11-14).

[4] = test system: A2780-s and A2780-cp ovarian cancer cells; assay: SECM electrochemical response of ovarian cancer cells to carboplatin (FcCH2OH regeneration); format: cell-based
Method: Carboplatin-susceptible (A2780-s) and carboplatin-resistant (A2780-cp) ovarian cancer cells were grown in petri dishes at 37° C. until a confluence of approximately 60 to 70% was reached. Cells were exposed to a PBS solution containing 1 mM ferrocenemethanol (FcCH2OH) at 37° C. for 45 minutes. Following this incubation, the petri dish was inserted into a scanning electrochemical microscope (SECM), equipped with a camera, fluorescence unit and a heating stage. Target cells were identified using an approach curve and a horizontal line scan was carried out across the cells every 5 to 10 minutes. The solution in the petri dish was exchanged for a PBS solution containing 2 mM carboplatin and 1 mM ferrocenemethanol (FcCH2OH). Horizontal line scans were carried out every 5 to 10 minutes to record the electrochemical response by the cells.

[5] = test system: carboplatin-susceptible and carboplatin-resistant ovarian cancer cell line; assay: Voltammetric carboplatin uptake study in ovarian cancer cells; format: cell-based; conditions: one carboplatin-susceptible and one carboplatin-resistant cell line
Method: Further work was done by the inventors^45 to evaluate the electrochemical detection of chemotherapeutic uptake by ovarian cancer cells, whereby an electrochemical characterization of carboplatin was evaluated for detection limits and pH dependence. Furthermore, bioelectrochemical studies quantified carboplatin uptake by ovarian cancer cells.

[6] = test system: Pseudomonas bacteria (PAO1 and PA262); conditions: not told
Method: After 25 min of incubation, the bacteria suspension is centrifuged, cells are resuspended in PBS and drop-casted onto a 3-mm glassy carbon macroelectrode (see FIG. 1D). Other macroelectrode materials, such as gold, platinum, etc. could be employed in the same way. The electrode is then placed in a KCl solution and DPV is performed at a potential rage of zero to 1.0V. This potential range would be adjusted depending on the drug of interest.
When the electrode is placed in the KCl solution, various time intervals were applied before driving the oxidation reaction at the electrode.

Compound: NC[C@H]1O[C@H](O[C@H]2[C@H](O)[C@@H](O[C@H]3O[C@H](CO)[C@@H](O)[C@H](N)[C@H]3O)[C@H](N)C[C@@H]2N)[C@H](N)C[C@@H]1O [Tobramycin]
Percentage of Tobramycin in Supernatant, PAO1 ([1]; 15 minutes): 80% | Percentage of Tobramycin in Supernatant, PAO1 ([1]; 30 minutes): 81% | Percentage of Tobramycin in Supernatant, PAO1 ([1]; 60 minutes): 99% | uptake observation at prolonged incubation, PAO1 ([1]; 2 mM, 60 min): A similar effect is seen in PAO1 | Tobramycin taken up from the solution by PAO1 ([1]; 2 mM, incubation times of 15 and 30 min): approximately 20% | time to establishment of equilibrium of intracellular and extracellular Tobramycin ([1]; PAO1, 2 mM): < 15 min | Percentage of Tobramycin in Supernatant, PAO750 ([2]; 15 minutes): 74% | Percentage of Tobramycin in Supernatant, PAO750 ([2]; 30 minutes): 95% | Percentage of Tobramycin in Supernatant, PAO750 ([2]; 60 minutes): 99% | Tobramycin removed by PAO750 ([2]; 2 mM, 15 min): about 26% | uptake observation at prolonged incubation, PAO750 ([2]; 2 mM, 30 min): the uptake is failing, probably due to cell lysis of PAO750 | stability of Tobramycin control solution (DPV currents before and after incubation) ([3]; 2 mM): do not vary, indicating stable 2 mM Tobramycin concentrations | Percentage of Tobramycin in Supernatant, Control ([3]; 15 minutes): 99% | Percentage of Tobramycin in Supernatant, Control ([3]; 30 minutes): 99% | Percentage of Tobramycin in Supernatant, Control ([3]; 60 minutes): 95%

Compound: N.N.O=C([O-])C1(C(=O)[O-])CCC1.[Pt+2] [carboplatin]
time for slope increase to relax back to its initial value ([4]; A2780-cp cells): 5 to 10 min | change of slope (peak current vs scan velocity) after drug exposure ([4]; A2780-cp cells, 2 mM carboplatin, 1 mM FcCH2OH): an increase in slope right after carboplatin exposure was observed | difference in SECM response between susceptible and resistant cells ([4]; A2780-s vs A2780-cp): A clear difference between carboplatin-susceptible and carboplatin-resistant cells | drug uptake detected by voltammetry [5]: demonstrated the detection of carboplatin uptake

DPV current of drop-casted bacteria after incubation with drug (export from the bacteria) [6]: significant increase in current
Compound: O=C(O)c1cn(C2CC2)c2cc(N3CCNCC3)c(F)cc2c1=O [ciprofloxacin]
dependence of export current peak on wait time [6]: a longer wait time results in a higher current peak
